Key:
HIF-2α = molecular target: T1, HIF-2α (Homo sapiens, UniProt Q99814); test: HIF-2α Luciferase Reporter Assay; format: cell-based; settings: HIF-Luc-786-0 cells, 20 hours incubation, luciferase activity; read-out: HIF-2α Luciferase Assay
T1 construct: endogenous in cells; host or cells: 786-O cells (ATCC CRL-1932) stably carrying the Cignal Lenti HIF Luc Reporter
Description: Stable cell lines were generated by transducing 786-O cells (ATCC, CRL-1932) with Cignal Lenti HIF Luc Reporter lentivirus (CLS-007L, Qiagen) according to the manufacturer's guidelines. In brief, 0.3×10^6 786-0 cells were transduced with lentivirus at a Multiplicity of Infection (MOI) of 25 for 24 hours. After transduction, cells were replenished with fresh RPMI 1640 Medium (Cat. No. 11875085, Thermo Fisher,) supplemented with 10% FBS (Cat. No. A3160502, Gibco), 2 mM GlutaMax (Cat. No. 35050-061, Invitrogen) and 100 units of penicillin and 100 μg of streptomycin/mL (Cat. No 15070063, Thermo Fisher) for another 24 hours. Antibiotic selection was performed in cell media containing 4 μg/mL of Puromycin. After 7 days of antibiotic selection, stable pools of surviving cells were expanded and used in a luciferase reporter assay.
On day one, 20 uL of HIF-Luc-786-0 cells in OptiMem (Cat. No. 31985088, Thermo Fisher) were seeded into each well of a 384 well white opaque plate (Corning 3570) and incubated at 37° C. and 5% CO2. Twenty microliters of 2× test compounds in OptiMem were added to cells after 4 hours of incubation. Final assay conditions comprised 20,000 cells per well in 1% DMSO with test compound concentrations ranging from 50 uM to 0 uM. After 20 hours incubation at 37° C. and 5% CO2, luciferase activity was determined using ONE-Glo Luciferase Assay Reagent (E6110, Promega) following the manufacture's recommended procedure. Briefly, 40 uL of ONE-Glo luciferase reagents were added to each well and luciferase signals were measured using an Envision 2102 Multilabel Reader. Percentage maximum activity in each test well was calculated based on DMSO (maximum activity) and no cell control wells (baseline activity). The IC50 values of the test compounds were determined from compound dose response curves fitted using a standard four parameter fit equation.

[1] = molecular target: T2, Histidine tagged HIF-2α protein containing PAS-B domain (240-350) (Homo sapiens, UniProt Q99814); test: HIF-2α Scintillation Proximity Assay (SPA); format: binding; settings: 50 nM HIF-2α protein, 25 nM radiolabeled tracer; read-out: HIF-2α Scintillation Proximity Assay
T2 construct: Histidine tagged HIF-2α protein containing PAS-B domain (240-350) was prepared and purified in house; made in house
Description: Tritium labeled compound N-(3-chlorophenyl)-4-nitro-2,1,3-benzoxadiazol-5-amine was obtained from American Radiolabeled Chemicals Inc. and copper chelate PVT SPA beads were from PerkinElmer (Cat #RPNQ0095). Histidine tagged HIF-2α protein containing PAS-B domain (240-350) was prepared and purified in house.
Compounds solubilized in DMSO were dispensed into a white 384-well polystyrene non-binding flat clear bottom plate (Greiner Bio-One, Cat #781903) using an HP D300 dispenser. Ten microliters of HIS-tagged HIF-2α protein in buffer (25 mM Tris-HCl, pH 7.4, 150 mM NaCl, 0.15% BSA and 0.001% Tween 20) was added to the compound wells and allowed to incubate for 1 hour at room temperature. Ten microliters of SPA bead mix were added to the wells and incubated for an additional 45 minutes, followed by 10 ul of ^3H-tracer solution. Final assay conditions comprised 50 nM HIF-2α protein, 25 nM radiolabeled tracer and 3 ug beads per well with compounds in 2% DMSO. The plate was read using a MicroBeta Microplate Counter (PerkinElmer) for luminescence detection. The IC50 values of the test compounds were determined from compound dose response curves fitted using a standard four parameter fit equation and are reported in Table 1.

T1 sequence (Q99814 whole entry): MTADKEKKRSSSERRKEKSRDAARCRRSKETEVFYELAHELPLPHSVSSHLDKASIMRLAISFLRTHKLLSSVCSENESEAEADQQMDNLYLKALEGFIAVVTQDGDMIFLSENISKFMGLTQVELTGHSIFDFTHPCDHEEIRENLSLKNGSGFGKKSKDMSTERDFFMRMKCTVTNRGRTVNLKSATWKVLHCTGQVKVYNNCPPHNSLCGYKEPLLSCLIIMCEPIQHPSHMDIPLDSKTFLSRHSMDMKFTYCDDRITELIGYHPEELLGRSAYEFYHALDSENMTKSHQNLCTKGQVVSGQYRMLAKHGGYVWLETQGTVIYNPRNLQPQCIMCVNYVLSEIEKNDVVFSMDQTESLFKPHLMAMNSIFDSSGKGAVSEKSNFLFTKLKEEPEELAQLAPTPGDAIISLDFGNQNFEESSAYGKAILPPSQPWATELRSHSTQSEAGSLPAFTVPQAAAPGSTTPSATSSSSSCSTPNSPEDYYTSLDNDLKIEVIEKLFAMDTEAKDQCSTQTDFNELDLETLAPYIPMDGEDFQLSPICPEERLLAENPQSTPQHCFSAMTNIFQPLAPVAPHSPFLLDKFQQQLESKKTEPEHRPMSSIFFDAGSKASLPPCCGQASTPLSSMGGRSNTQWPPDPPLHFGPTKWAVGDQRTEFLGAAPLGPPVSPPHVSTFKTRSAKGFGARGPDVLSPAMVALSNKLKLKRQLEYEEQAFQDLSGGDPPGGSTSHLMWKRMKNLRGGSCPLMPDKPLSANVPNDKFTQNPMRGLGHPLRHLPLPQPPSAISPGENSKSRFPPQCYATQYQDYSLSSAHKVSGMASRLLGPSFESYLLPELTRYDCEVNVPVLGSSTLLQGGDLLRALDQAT
T2 sequence (Q99814 240-350): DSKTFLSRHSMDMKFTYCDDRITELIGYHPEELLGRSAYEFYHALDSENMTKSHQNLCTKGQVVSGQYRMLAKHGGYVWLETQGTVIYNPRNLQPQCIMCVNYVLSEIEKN

Row | Structure (SMILES) | IC50 (HIF-2α) | IC50 [1]
1 | O=S(=O)(c1ccc(Nc2cc(F)cc(F)c2)c2cn[nH]c12)C(F)(F)F [Example 46, (3,5-Difluorophenyl)[7-(trifluoromethylsulfonyl)-1H-indazol-4-yl]amine] | > 10 µM | 1 to 10 µM
2 | O=S(=O)(c1ccc(Nc2cc(F)cc(Cl)c2)c2cn[nH]c12)C(F)(F)F [Example 47, (3-Chloro-5-fluorophenyl)[7-(trifluoromethylsulfonyl)-1H-indazol-4-yl]amine] | > 10 µM | 1 to 10 µM
3 | N#Cc1cc(Nc2ccc(S(=O)(=O)C(F)(F)F)c3[nH]ncc23)ccc1F [Example 48, 2-Fluoro-5-[7-(trifluoromethylsulfonyl)-1H-indazol-4-ylamino]benzonitrile] | > 10 µM | > 10 µM
4 | O=S(=O)(c1ccc(NCc2ccccc2F)c2cn[nH]c12)C(F)(F)F [Example 50, N-[(2-Fluorophenyl)methyl]-7-(trifluoromethylsulfonyl)-1H-indazol-4-amine] | > 10 µM | > 10 µM
5 | O=S(=O)(c1ccc(NCc2ccccc2)c2cn[nH]c12)C(F)(F)F [Example 51, N-benzyl-7-(trifluoromethylsulfonyl)-1H-indazol-4-amine] | > 10 µM | > 10 µM
6 | O=S(=O)(c1ccc(NCc2ccc(F)cc2)c2cn[nH]c12)C(F)(F)F [Example 52, N-[(4-fluorophenyl)methyl]-7-(trifluoromethylsulfonyl)-1H-indazol-4-amine] | > 10 µM | > 10 µM

Further lines, results first:

Row | IC50 (HIF-2α) | IC50 [1] | Structure (SMILES)
7 | > 10 µM | > 10 µM | O=S(=O)(c1ccc(NCc2ccc(F)cc2F)c2cn[nH]c12)C(F)(F)F [Example 53, N-[(2,4-difluorophenyl)methyl]-7-(trifluoromethylsulfonyl)-1H-indazol-4-amine]
8 | > 10 µM | > 10 µM | O=S(=O)(c1ccc(NCc2ccc(F)cc2Cl)c2cn[nH]c12)C(F)(F)F [Example 54, N-[(2-chloro-4-fluorophenyl)methyl]-7-(trifluoromethylsulfonyl)-1H-indazol-4-amine]
9 | > 10 µM | > 10 µM | O=S(=O)(c1ccc(NCc2ccc(F)cc2C(F)(F)F)c2cn[nH]c12)C(F)(F)F [Example 55, N-[[4-fluoro-2-(trifluoromethyl)phenyl]methyl]-7-(trifluoromethylsulfonyl)-1H-indazol-4-amine]
10 | > 10 µM | > 10 µM | O=S(=O)(c1ccc(NCc2cc(Cl)cc(Cl)c2)c2cn[nH]c12)C(F)(F)F [Example 56, N-[(3,5-dichlorophenyl)methyl]-7-(trifluoromethylsulfonyl)-1H-indazol-4-amine]
11 | > 10 µM | 1 to 10 µM | O=S(=O)(c1ccc(NC2CC(F)(F)C2)c2cn[nH]c12)C(F)(F)F [Example 57, N-(3,3-Difluorocyclobutyl)-7-trifluoromethanesulfonyl-1H-indazol-4-amine]
12 | 1 to 10 µM | 1 to 10 µM | Cc1n[nH]c2c(S(=O)(=O)C(F)(F)F)ccc(Oc3cc(F)cc(C#N)c3)c12 [Example 58, 3-Fluoro-5-[(3-methyl-7-trifluoromethanesulfonyl-1H-indazol-4-yl)oxy]benzonitrile]
13 | 1 to 10 µM | > 10 µM | O=S(=O)(c1ccc(Cc2cccc(Cl)c2)c2cn[nH]c12)C(F)(F)F [Example 59, 4-[(3-Chlorophenyl)methyl]-7-trifluoromethanesulfonyl-1H-indazole]
14 | 1 to 10 µM | > 10 µM | N#Cc1cc(F)cc(Oc2ccc(S(=O)(=O)C(F)(F)F)c3[nH]nc(C#N)c23)c1 [Example 60, 4-(3-Cyano-5-fluorophenoxy)-7-trifluoromethanesulfonyl-1H-indazole-3-carbonitrile]
15 | > 10 µM | < 1 µM | N#Cc1cc(F)cc(Oc2ccc(S(=O)(=O)C(F)(F)F)c3[nH]nc(Cl)c23)c1 [Example 61, 3-[(3-Chloro-7-trifluoromethanesulfonyl-1H-indazol-4-yl)oxy]-5-fluorobenzonitrile]

Reference: patent publication US20230024438A1, “INHIBITORS OF HIF-2ALPHA” (ARCUS BIOSCIENCES, INC., priority 2019, published 2023)
